# Test results as given in patent US7423175B2, “Hydroxy-tetrahydro-naphthalenylurea derivatives” (Bayer Healthcare AG, priority 2003, dated 2008).
# Columns and labels:
# human VR1 = target: T1, human VR1 (Homo sapiens, UniProt Q8NER1); experiment: Capsaicin-induced Ca2+ influx in the human VR1-transfected CHO cell line (Assay 1); assay type: cell-based; conditions: human VR1-CHOluc9aeq cells, stimulation with 10 nM capsaicin; read-out: activity class (IC50)
# T1 construct: expressed in transfected cells; host or cells: CHOluc9aeq (CHO cells with aequorin and CRE-luciferase reporter genes)
# Text: [Measurement of Capsalcin-Induced Ca^2+ Influx in the Human VR1-Transfected CHO Cell Line] (Assay 1)
# (1) Establishment of the Human VR1-CHOluc9aeq Cell Line
# Human vanilloid receptor (hVR1) cDNA was cloned from libraries of axotomized dorsal root ganglia (WO 00/29577). The cloned hVR1 cDNA was constructed with pcDNA3 vector and transfected into a CHOluc9aeq cell line. The cell line contains aequorin and CRE-luciferase reporter genes as read-out signals. The transfectants were cloned by limiting dilution in selection medium (DMEM/F12 medium (Gibco BRL) supplemented with 10% FCS, 1.4 mM Sodium pyruvate, 20 mM HEPES, 0.15% Sodium bicarbonate, 100 U/ml penicillin, 100 μg/ml streptomycin, 2 mM glutamine, non-essential amino acids and 2 mg/ml G418). Ca^2+ influx was examined in the capsaicin-stimulated clones. A high responder clone was selected and used for further experiments in the project. The human VR1-CHOluc9aeq cells were maintained in the selection medium and passaged every 3-4 days at 1-2.5×10^5 cells/flask ([…]).
# (2) Measurement of Ca^2+ Influx Using FDSS-3000
# Human VR1-CHOluc9aeq cells were suspended in a culture medium which is the same as the selection medium except for G418 and seeded at a density of 1,000 cells per well into 384-well plates (black walled clear-base/Nalgei Nunc International). Following the culture for 48 hrs the medium was changed to 2 μM Fluo-3 AM (Molecular Probes) and 0.02% Puronic F-127 in assay buffer (Hank's balanced salt solution (HBSS), 17 mM HEPES (pH7.4), 1 mM Probenecid, 0.1% BSA) and the cells were incubated for 60 min at 25° C. After washing twice with assay buffer the cells were incubated with a test compound or vehicle for 20 min at 25° C. Mobilization of cytoplasmic Ca^2+ was measured by FDSS-3000 (λex=488 nm, λem=546 nm/Hamamatsu Photonics) for 60 sec after the stimulation with 10 nM capsaicin. Integral R was calculated and compared with controls.
# Results in capsaicin-induced Ca^2+ influx assay in the human VR1-transfected CHO cell line (Assay 1) are shown in Examples and tables of the Examples below. For practical reasons, the compounds are grouped in four classes based on activity as follows: IC50=A(< or =)0.1 μM<B(< or =)0.5 μM<C(< or =)1 μM<D
# T1 sequence (Q8NER1 whole entry): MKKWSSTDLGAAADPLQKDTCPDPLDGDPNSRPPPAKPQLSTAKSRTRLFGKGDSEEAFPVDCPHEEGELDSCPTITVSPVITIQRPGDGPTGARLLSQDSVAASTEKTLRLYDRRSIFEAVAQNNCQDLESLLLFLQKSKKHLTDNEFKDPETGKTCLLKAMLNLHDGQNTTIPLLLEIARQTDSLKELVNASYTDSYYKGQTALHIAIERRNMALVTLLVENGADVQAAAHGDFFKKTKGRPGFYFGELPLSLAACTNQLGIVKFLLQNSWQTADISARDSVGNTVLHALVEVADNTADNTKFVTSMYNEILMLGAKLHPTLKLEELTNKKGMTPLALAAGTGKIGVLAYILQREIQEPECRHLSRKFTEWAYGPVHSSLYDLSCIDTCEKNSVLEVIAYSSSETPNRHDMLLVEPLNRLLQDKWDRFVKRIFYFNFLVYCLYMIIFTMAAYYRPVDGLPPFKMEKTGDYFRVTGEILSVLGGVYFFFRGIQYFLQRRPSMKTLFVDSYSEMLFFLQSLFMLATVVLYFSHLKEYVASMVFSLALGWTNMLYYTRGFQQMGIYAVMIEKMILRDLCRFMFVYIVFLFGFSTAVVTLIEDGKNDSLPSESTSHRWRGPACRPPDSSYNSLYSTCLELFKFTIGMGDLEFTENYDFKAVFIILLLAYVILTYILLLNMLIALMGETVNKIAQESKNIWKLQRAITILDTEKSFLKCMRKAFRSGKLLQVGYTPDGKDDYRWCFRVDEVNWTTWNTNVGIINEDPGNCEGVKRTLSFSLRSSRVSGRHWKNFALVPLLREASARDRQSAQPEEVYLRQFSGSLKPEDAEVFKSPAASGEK
IC50 (human VR1),melting point,SMILES
< 100 nM,167 to 169 °C,"O=C(NCCOc1ccc(F)cc1)Nc1cccc2c1CC(O)CC2 (centres unmarked) [Example 1-1, N-[2-(4-Fluorophenoxy)ethyl]-N′-(7-hydroxy-5,6,7,8-tetrahydronaphthalen-1-yl)urea]"
< 100 nM,131 to 136 °C,"O=C(NCCOc1ccccc1F)Nc1cccc2c1CC(O)CC2 (centres unmarked) [Example 1-2, N-[2-(2-Fluorophenoxy)ethyl]-N′-(7-hydroxy-5,6,7,8-tetrahydro-1-naphthalenyl)-urea]"
< 100 nM,165 to 166 °C,"CCOC(=O)c1c(F)cccc1OCCNC(=O)Nc1cccc2c1CC(O)CC2 (centres unmarked) [Example 1-3, Ethyl 2-Fluoro-6-{2-[3-(7-hydroxy-5,6,7,8-tetrahydronaphthalen-1-yl)-ureido]-ethoxy}benzoate]"
< 100 nM,144 to 149 °C,"O=C(NCCOc1cc(C(F)(F)F)cc(C(F)(F)F)c1)Nc1cccc2c1CC(O)CC2 (centres unmarked) [Example 1-4, N-{2-[3,5-Bis(trifluoromethyl)phenoxy]ethyl}-N′-(7-hydroxy-5,6,7,8-tetrahydronaphthalen-1-yl)urea]"
< 100 nM,128 to 136 °C,"O=C(NCCOc1ccccc1N1CCCCC1)Nc1cccc2c1CC(O)CC2 (centres unmarked) [Example 1-5, N-(7-Hydroxy-5,6,7,8-tetrahydronaphthalen-1-yl)-N′-[2-(2-piperidin-1-yl-phenoxy)ethyl]urea]"
> 1000 nM,182 to 184 °C,"COc1ccccc1OCCNC(=O)Nc1cccc2c1CC(O)CC2 (centres unmarked) [Example 1-6, N-(7-Hydroxy-5,6,7,8-tetrahydronaphthalen-1-yl)-N′-[2-(2-methoxyphenoxy)ethyl]urea]"
< 100 nM,111 to 113 °C,"O=C(NCCOc1ccc(F)cc1)Nc1cccc2c1C[C@H](O)CC2 [Example 1-7, N-[2-(4-Fluorophenoxy)ethyl]-N′-[(7R)-7-hydroxy-5,6,7,8-tetrahydronaphthalen-1-yl]urea]"
< 100 nM,112 to 113 °C,"O=C(NCCOc1ccc(F)cc1)Nc1cccc2c1C[C@@H](O)CC2 [Example 1-8, N-[2-(4-Fluorophenoxy)ethyl]-N′-[(7S)-7-hydroxy-5,6,7,8-tetrahydronaphthalen-1-yl]urea]"
< 100 nM,149 to 150 °C,"CCN(CCNC(=O)Nc1cccc2c1CC(O)CC2)c1cccc(C)c1 (centres unmarked) [Example 1-9, N-{2-[Ethyl(m-tolyl)amino]ethyl]-N′-(7-hydroxy-5,6,7,8-tetrahydro-1-naphthalenyl)urea]"
< 100 nM,160 to 162 °C,"Cc1cccc(N(C)CCNC(=O)Nc2cccc3c2CC(O)CC3)c1 (centres unmarked) [Example 1-10, N-(7-Hydroxy-5,6,7,8-tetrahydronaphthalen-1-yl)-N′-{2-[methyl(m-tolyl)amino]-ethyl}urea]"
< 100 nM,143 to 144 °C,"CCN(CCNC(=O)Nc1cccc2c1C[C@H](O)CC2)c1cccc(C)c1 [Example 1-11, N-{2-[Ethyl(m-tolyl)amino]ethyl}-N′-[(7R)-7-hydroxy-5,6,7,8-tetrahydro-1-naphthalenyl]urea]"
< 100 nM,136 to 137 °C,"CCN(CCNC(=O)Nc1cccc2c1C[C@@H](O)CC2)c1cccc(C)c1 [Example 1-12, N-{2-[Ethyl(m-tolyl)amino]ethyl}-N′-[(7S)-7-hydroxy-5,6,7,8-tetrahydro-1-naphthalenyl]urea]"
< 100 nM,125 to 126 °C,"CN(CCCNC(=O)Nc1cccc2c1CC(O)CC2)c1ccccc1 (centres unmarked) [Example 1-13, N-(7-Hydroxy-5,6,7,8-tetrahydronaphthalen-1-yl)-N′-[3-(methyl-phenyl-amino)propyl]urea]"
